Data on 13 molecules can be found in patent publication US20110152326A1, “SUBSTITUTED ARYLOXOETHYL CYCLOPROPANECARBOXAMIDE COMPOUNDS AS VR1 RECEPTOR ANTAGONISTS” (priority 2005, published 2011).

The target of this assay is T1, human VR1 receptors (Homo sapiens, UniProt Q8NER1).
T1 construct: host or cells: cells that highly express human VR1 receptors
T1 sequence (Q8NER1 whole entry): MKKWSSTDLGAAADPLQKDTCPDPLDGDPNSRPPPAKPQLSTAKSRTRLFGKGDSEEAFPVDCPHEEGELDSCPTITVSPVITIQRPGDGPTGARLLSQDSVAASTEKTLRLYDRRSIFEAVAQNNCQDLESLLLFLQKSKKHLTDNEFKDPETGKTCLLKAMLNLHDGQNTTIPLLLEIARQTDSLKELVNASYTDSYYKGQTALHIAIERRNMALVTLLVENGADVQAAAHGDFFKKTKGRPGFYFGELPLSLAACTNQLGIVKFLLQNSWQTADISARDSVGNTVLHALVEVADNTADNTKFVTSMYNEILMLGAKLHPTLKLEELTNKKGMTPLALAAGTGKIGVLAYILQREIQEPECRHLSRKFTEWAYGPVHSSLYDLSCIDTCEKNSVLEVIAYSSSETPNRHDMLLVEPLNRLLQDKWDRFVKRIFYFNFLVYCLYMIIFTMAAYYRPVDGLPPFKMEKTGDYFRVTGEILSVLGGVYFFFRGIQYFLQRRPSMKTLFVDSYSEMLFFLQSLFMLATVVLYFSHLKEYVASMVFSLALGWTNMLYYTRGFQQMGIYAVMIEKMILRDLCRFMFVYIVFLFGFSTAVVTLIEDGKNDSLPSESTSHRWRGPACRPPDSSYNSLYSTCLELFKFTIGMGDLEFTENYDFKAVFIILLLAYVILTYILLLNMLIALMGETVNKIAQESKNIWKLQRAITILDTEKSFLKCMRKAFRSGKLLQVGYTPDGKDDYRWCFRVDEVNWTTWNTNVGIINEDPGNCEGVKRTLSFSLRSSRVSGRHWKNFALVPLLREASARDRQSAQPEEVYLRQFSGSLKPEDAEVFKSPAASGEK
Put plainly: Human VR1 antagonist assay, Ca2+ imaging, capsaicin stimulation. The assay is classed as cell-based. Particulars: human VR1 expressing cells; concentration required to reduce capsaicin-evoked Ca2+ influx by 50%; capsaicin 300 nM; read-out: hVR1 IC50. The text has this:
VR1 antagonistic activity can be determined by the Ca^2+ imaging assay using human VR1 highly expressing cells. The cells that highly express human VR1 receptors are obtainable from several different conventional methods. The one standard method is cloning from human Dorsal Root Ganglion (DRG) or kidney according to the methods such as described in the journal article; Nature, 389, pp 816-824, 1997. Alternatively VR1 receptors highly expressing human keratinocytes are also known and published in the journal article (Biochemical and Biophysical Research Communications, 291, pp 124-129, 2002). […] Further more, the method to up regulate human VR1 gene, which is usually a silent gene or don't produce detectable level of VR1 receptors, is also available to obtain propriety cells. Such genetic modification method was described in detail; Nat. Biotechnol., 19, pp 440-445, 2001.
The cells that express human VR1 receptors were maintained in culture flask at 37° C. in an environment containing 5% CO2 until use in the assay. The intracellular Ca^2+ imaging assay to determine VR1 antagonistic activities were done by following procedures.
The culture medium was removed from the flask and fura-2/AM fluorescent calcium indicator was added to the flask at a concentration of 5 μM in the medium. The flask was placed in CO2 incubator and incubated for 1 hour. Then the cells expressing the human VR1 receptors were detached from the flask follow by washing with phosphate buffer saline, PBS(−) and re-suspended in assay buffer. The 80 μl of aliquot of cell suspension (3.75×10^5 cells/ml) was added to the assay plate and the cells were spun down by centrifuge (950 rpm, 20° C., 3 minutes).
The capsaicin-induced changes in the intracellular calcium concentration were monitored using FDSS 6000 (Hamamatsu Photonics, Japan), a fluorometric imaging system. The cell suspension in Krebs-Ringer HEPES (KRH) buffer (115 mM NaCl, 5.4 mM KCl, 1 mM MgSO4, 1.8 mM CaCl2, 11 mM D-Glucose, 25 mM HEPES, 0.96 mM Na2HPO4, pH 7.3) were pre-incubated with varying concentrations of the test compounds or KRH buffer (buffer control) for 15 minutes at room temperature under the dark condition. Then capsaicin solution, which gives 300 nM in assay mixture, was automatically added to the assay plate by the FDSS 6000.
The monitoring of the changes in the fluorescence signals (λex=340 nm/380 nm, λem=510-520 nm) was initiated at 1 minute prior to the addition of capsaicin solution or acidic buffer and continued for 5 minute.
By IC50 is commonly meant the concentration at which inhibition is half-maximal. `Cc1cccnc1C(=O)CNC(=O)C1CC1c1ccc(C(C)(C)C)cc1` (stereo not shown) [Example 1, 2-(4-Tert-Butylphenyl)-N-[2-(3-Methylpyridin-2-yl)-2-Oxoethyl]Cyclopropanecarboxamide]: the IC50 was found to be 102 nM. `COc1ccc(C)c(C(=O)CNC(=O)C2CC2c2ccc(C(C)(C)C)cc2)c1` (stereo not shown) [Example 2, 2-(4-Tert-Butylphenyl)-N-[2-(5-Methoxy-2-Methylphenyl)-2-Oxoethyl]Cyclopropanecarboxamide]: the IC50 was determined as 1010 nM. The value for `Cc1ccc(O)cc1C(=O)CNC(=O)C1CC1c1ccc(C(C)(C)C)cc1` (stereo not shown) [Example 3, 2-(4-Tert-Butylphenyl)-N-[2-(5-Hydroxy-2-Methylphenyl)-2-Oxoethyl]Cyclopropanecarboxamide] was 704 nM; that for `Cc1cccnc1C(=O)CNC(=O)C1CC1c1ccc(C(C)(C)C)c(F)c1` (stereo not shown) [Example 4, 2-(4-Tert-Butyl-3-Fluorophenyl)-N-[2-(3-Methylpyridin-2-yl)-2-Oxoethyl]Cyclopropanecarboxamide] was 99 nM; that for `Cc1cccnc1C(=O)CNC(=O)C1CC1c1ccc(C(C)(C)C(F)(F)F)cc1` (stereo not shown) [Example 5, N-[2-(3-Methylpyridin-2-yl)-2-Oxoethyl]-2-[4-(2,2,2-Trifluoro-1,1-Dimethylethyl)Phenyl]Cyclopropanecarboxamide] was 111 nM.

With `Cc1cccnc1C(=O)CNC(=O)C1CC1(C)c1ccc(C(C)(C)C)cc1` (stereo not shown) [Example 6, 2-(4-Tert-Butylphenyl)-2-Methyl-N-[2-(3-Methylpyridin-2-yl)-2-Oxoethyl]Cyclopropanecarboxamide], the half-maximal inhibitory concentration (IC50) is 134 nM. On to `Cc1cccnc1C(=O)CNC(=O)C1CC1c1ccc(C(C)(C)C)c(Cl)c1` (stereo not shown) [Example 7, 2-(4-Tert-Butyl-3-Chlorophenyl)-N-[2-(3-Methylpyridin-2-yl)-2-Oxoethyl]Cyclopropanecarboxamide], for which the concentration for half-maximal inhibition (IC50) came to 92 nM. The value for `CC(C)(C)c1ccc(C2CC2C(=O)NCC(=O)c2ncccc2C(F)(F)F)cc1F` (stereo not shown) [Example 8, 2-(4-Tert-Butyl-3-Fluorophenyl)-N-[2-(3-Trifluoromethylpyridin-2-yl)-2-Oxoethyl]Cyclopropanecarboxamide] was 102 nM; that for `Cc1cccnc1C(=O)CNC(=O)C1C(c2ccc(C(C)(C)C)cc2)C1(F)F` (stereo not shown) [Example 9, 3-(4-Tert-Butylphenyl)-2,2-Difluoro-N-[2-(3-Methylpyridin-2-yl)-2-Oxoethyl]Cyclopropanecarboxamide] was 306 nM; that for `Cn1ccnc1C(=O)CNC(=O)C1CC1c1ccc(C(C)(C)C)c(F)c1` (stereo not shown) [Example 10, 2-(4-Tert-Butyl-3-Fluorophenyl)-N-[2-(1-Methyl-1H-Imidazol-2-yl)-2-Oxoethyl]Cyclopropanecarboxamide] was 238 nM. Turning to `Cn1ccnc1C(=O)CNC(=O)C1CC1(C)c1ccc(C(C)(C)C(F)(F)F)cc1` (stereo not shown) [Example 11, 2-Methyl-N-[2-(1-Methyl-1H-Imidazol-2-yl)-2-Oxoethyl]-2-[4-(2,2,2-Trifluoro-1,1-Dimethylethyl)Phenyl]Cyclopropanecarboxamide], the IC50 was determined as 451 nM. As to `CCn1ccnc1C(=O)CNC(=O)C1CC1(C)c1ccc(C(C)(C)C(F)(F)F)cc1` (stereo not shown) [Example 12, N-[2-(1-Ethyl-1H-Imidazol-2-yl)-2-Oxoethyl]-2-Methyl-2-[4-(2,2,2-Trifluoro-1,1-Dimethylethyl)Phenyl]Cyclopropanecarboxamide], the IC50 was 340 nM.

As to `CCn1ccnc1C(=O)CNC(=O)C1CC1c1cc(F)c(C(C)(C)C(F)(F)F)c(F)c1` (stereo not shown) [Example 13, 2-[3,5-Difluoro-4-(2,2,2-Trifluoro-1,1-Dimethylethyl)Phenyl]-N-[2-(1-Ethyl-1H-Imidazol-2-yl)-2-Oxoethyl]Cyclopropanecarboxamide], the IC50 came out at 69 nM.
